Source: patent US11939314B2, “Quinolin-2-one derivatives” (MERCK PATENT GMBH, priority 2016, dated 2024)

Assays:
[1] = target: T1, c-Kit(V654A) (Homo sapiens, UniProt P10721, V654A); assay: c-Kit(V654A) assay; type: biochemical; details: recombinant human c-Kit aa 544-end, 200 μM ATP, 1.4E-06 means 1.4×10^−6, read-out: Inhibition (IC50) of c-KIT (V654A)
T1 construct: amino acids 544-end containing the V654A mutation; GST (N)
How it was run: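 Radiometric filter-binding read-out: substrate 33P incorporation counted by scintillation after P30 filtermat washes in 75 mM phosphoric acid and methanol. Enzyme: N-GST recombinant human c-Kit aa 544-end carrying V654A.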

[2] = target: T2, PDGFRalpha(V561D) (Homo sapiens, UniProt P16234, V561D); assay: PDGFRalpha(V561D) assay; type: biochemical; details: recombinant human PDGFRalpha aa 550-end, 200 μM ATP, 1.4E-06 means 1.4×10^−6, read-out: Inhibition (IC50) of PDGFRα (V561D)
T2 construct: recombinant human PDGFRalpha, amino acids 550end containing the V561 D mutation; 6His (N)
T2 sequence (P16234 550-1089 V561D): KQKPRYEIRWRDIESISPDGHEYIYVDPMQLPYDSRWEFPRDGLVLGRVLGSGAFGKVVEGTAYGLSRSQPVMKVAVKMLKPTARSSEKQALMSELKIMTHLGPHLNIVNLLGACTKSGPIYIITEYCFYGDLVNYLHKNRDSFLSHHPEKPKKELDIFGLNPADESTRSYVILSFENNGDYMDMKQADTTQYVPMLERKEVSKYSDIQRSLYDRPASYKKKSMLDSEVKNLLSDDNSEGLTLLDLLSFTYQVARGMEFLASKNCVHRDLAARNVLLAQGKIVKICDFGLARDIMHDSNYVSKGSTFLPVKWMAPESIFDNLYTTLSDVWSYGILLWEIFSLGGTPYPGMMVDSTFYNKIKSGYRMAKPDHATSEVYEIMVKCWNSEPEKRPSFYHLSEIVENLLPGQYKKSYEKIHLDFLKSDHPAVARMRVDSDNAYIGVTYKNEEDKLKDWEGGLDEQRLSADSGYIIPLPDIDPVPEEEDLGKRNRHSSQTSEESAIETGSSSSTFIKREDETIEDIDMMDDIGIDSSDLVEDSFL
How it was run: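 Radiometric filter-binding assay: substrate phosphorylation by recombinant N-His-tagged human PDGFRα 550-end V561D was quenched with 3% phosphoric acid after 40 min at room temperature, then counted.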

T1 sequence (P10721 544-976 V654A): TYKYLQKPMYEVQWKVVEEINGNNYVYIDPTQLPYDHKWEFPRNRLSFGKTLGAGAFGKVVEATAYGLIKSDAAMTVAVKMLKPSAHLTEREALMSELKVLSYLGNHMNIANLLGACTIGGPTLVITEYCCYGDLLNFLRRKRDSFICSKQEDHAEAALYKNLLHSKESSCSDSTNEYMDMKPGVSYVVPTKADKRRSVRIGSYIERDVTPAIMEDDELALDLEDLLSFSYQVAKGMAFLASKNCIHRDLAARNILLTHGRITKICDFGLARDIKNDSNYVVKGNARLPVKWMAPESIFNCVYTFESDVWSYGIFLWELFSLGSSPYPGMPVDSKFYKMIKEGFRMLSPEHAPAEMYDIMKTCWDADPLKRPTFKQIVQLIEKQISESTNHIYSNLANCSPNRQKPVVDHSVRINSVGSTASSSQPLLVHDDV

IC50 [1] [nM]	IC50 [2] [nM]	SMILES
50	740	O=C(c1ccc(-n2cc(-c3cc4cc(F)ccc4[nH]c3=O)nn2)cc1)N1CCCC12COC2 [A234, 6-fluoro-3-{1-[4-(2-oxa-5-aza-spiro[3.4]octane-5-carbonyl)-phenyl]-1H-[1,2,3]triazol-4-yl}-1H-quinolin-2-one]
19	8.2	O=C(c1ccc(-n2cc(-c3cc4ccc(Br)cc4[nH]c3=O)nn2)cc1)N1CCOCC1 [A91, 7-bromo-3-{1-[4-(morpholine-4-carbonyl)-phenyl]-1H-[1,2,3]triazol-4-yl}-1H-quinolin-2-one]
1800	12000	CN1CCN(C(=O)c2ccc(-n3cc(-c4cc5ccc(C(F)(F)F)cc5[nH]c4=O)nn3)cc2)CC1 [A170, 3-{1-[4-(4-methyl-piperazine-1-carbonyl)-phenyl]-1H-[1,2,3]triazol-4-yl}-7-trifluoromethyl-1H-quinolin-2-one]
24	48	O=C(c1ccc(-n2cc(-c3cc4cc(F)ccc4[nH]c3=O)nn2)cc1)N1CCC(CO)C1 (centres unmarked) [A206, 6-fluoro-3-{1-[4-(3-hydroxymethyl-pyrrolidine-1-carbonyl)-phenyl]-1H-[1,2,3]triazol-4-yl}-1H-quinolin-2-one]
5.9	0.32	CN1CCN(C(=O)c2ccc(-n3cc(-c4cc5cc(F)c(F)cc5[nH]c4=O)nn3)cc2)CC1 [A157, 6,7-difluoro-3-{1-[4-(4-methyl-piperazine-1-carbonyl)-phenyl]-1H-[1,2,3]triazol-4-yl}-1H-quinolin-2-one]
11	17	NC(=O)[C@@H]1CCCN1C(=O)c1ccc(-n2cc(-c3cc4cc(F)ccc4[nH]c3=O)nn2)cc1 [A242, (S)-1-{4-[4-(6-fluoro-2-oxo-1,2-dihydro-quinolin-3-yl)-[1,2,3]triazol-1-yl]-benzoyl}-pyrrolidine-2-carboxylic acid amide]
19	42	O=C(c1ccc(-n2cc(-c3cc4ccc(Cl)cc4[nH]c3=O)nn2)cc1)N1CCNCC1 [A126, 7-chloro-3-{1-[4-(piperazine-1-carbonyl)-phenyl]-1H-[1,2,3]triazol-4-yl}-1H-quinolin-2-one]
33	76	O=c1[nH]c2ccc(F)cc2cc1-c1cn(-c2ccc(N3CCCS3(=O)=O)cc2)nn1 [A99, 3-{1-[4-(1,1-dioxo-1|6-isothiazolidin-2-yl)-phenyl]-1H-[1,2,3]triazol-4-yl}-6-fluoro-1H-quinolin-2-one]
20	17	CN(C)C[C@@H]1CCCN1C(=O)c1ccc(-n2cc(-c3cc4cc(Cl)ccc4[nH]c3=O)nn2)cc1 [A318, 6-chloro-3-{1-[4-((S)-2-dimethylaminomethyl-pyrrolidine-1-carbonyl)-phenyl]-1H-[1,2,3]triazol-4-yl}-1H-quinolin-2-one]
75	1.2	CO[C@H]1CN(C(=O)c2ccc(-n3cc(-c4cc5cc(F)ccc5[nH]c4=O)nn3)cc2)C[C@@H]1OC [A264, 3-{1-[4-((3S,4S)-3,4-dimethoxy-pyrrolidine-1-carbonyl)-phenyl]-1H-[1,2,3]triazol-4-yl}-6-fluoro-1H-quinolin-2-one]
36	29	O=c1[nH]c2ccccc2cc1-c1cn(-c2ccc3nc[nH]c3c2)nn1 [A28, 3-[1-(3H-benzimidazol-5-yl)-1H-[1,2,3]triazol-4-yl]-1H-quinolin-2-one]
44	37	COCCO[C@@H]1CCN(C(=O)c2ccc(-n3cc(-c4cc5cc(F)ccc5[nH]c4=O)cn3)cc2)C1 [A261, 6-fluoro-3-(1-{4-[(R)-3-(2-methoxy-ethoxy)-pyrrolidine-1-carbonyl]-phenyl}-1H-pyrazol-4-yl)-1H-quinolin-2-one]
77	53	O=C(c1ccc(-n2cc(-c3cc4cc(F)ccc4[nH]c3=O)nn2)cc1)N1CCC1 [A280, 3-{1-[4-(azetidine-1-carbonyl)-phenyl]-1H-[1,2,3]triazol-4-yl}-6-fluoro-1H-quinolin-2-one]
15	6	CN1CCN(C(=O)c2ccc(-n3cc(-c4cc5ccccc5[nH]c4=O)nn3)cc2)CC1 [A57, 3-{1-[4-(4-methyl-piperazine-1-carbonyl)-phenyl]-1H-[1,2,3]triazol-4-yl}-1H-quinolin-2-one]
180	310	O=c1[nH]c2cc(F)c(F)cc2cc1-c1cn(-c2ccc(OCCCN3CCNCC3)cc2)nn1 [A135, 6,7-difluoro-3-{1-[4-(3-piperazin-1-yl-propoxy)-phenyl]-1H-[1,2,3]triazol-4-yl}-1H-quinolin-2-one]
20	63	O=C(c1ccc(-n2cc(-c3cc4cc(F)ccc4[nH]c3=O)nn2)cc1)N1CCC(N2CCCC2)C1 (centres unmarked) [A100, 3-{1-[4-([1,3′]bipyrrolidinyl-1′-carbonyl)-phenyl]-1H-[1,2,3]triazol-4-yl}-6-fluoro-1H-quinolin-2-one]

IC50 [1] [nM]	IC50 [2] [nM]	SMILES
5	1	O=C(c1ccc(-n2cc(-c3cc4cc(Cl)ccc4[nH]c3=O)nn2)cc1)N1CCNCC1 [A123, 6-chloro-3-{1-[4-(piperazine-1-carbonyl)-phenyl]-1H-[1,2,3]triazol-4-yl}-1H-quinolin-2-one]
220	220	CN(C)C[C@@H]1CCCN1C(=O)c1ccc(-n2cc(-c3cc4cc(F)c(F)cc4[nH]c3=O)nn2)cc1 [A323, 3-{1-[4-((S)-2-dimethylaminomethyl-pyrrolidine-1-carbonyl)-phenyl]-1H-[1,2,3]triazol-4-yl}-6,7-difluoro-1H-quinolin-2-one]
41	150	O=C(c1ccc(-n2cc(-c3cc4cc(F)ccc4[nH]c3=O)nn2)cc1)N1CCC2(CC1)COC2 [A229, 6-fluoro-3-{1-[4-(2-oxa-7-aza-spiro[3.5]nonane-7-carbonyl)-phenyl]-1H-[1,2,3]triazol-4-yl}-1H-quinolin-2-one]
3100	420	CN1Cc2cc(-n3cc(-c4cc5cc(F)ccc5[nH]c4=O)nn3)ccc2C1=O [A354, 6-fluoro-3-[1-(2-methyl-1-oxo-2,3-dihydro-1H-isoindol-5-yl)-1H-[1,2,3]triazol-4-yl]-1H-quinolin-2-one]
15	18	O=C(c1ccc(-n2cc(-c3cc4cc(F)c(F)cc4[nH]c3=O)nn2)cc1)C1CCNCC1 [A136, 6,7-difluoro-3-{1-[4-(piperidine-4-carbonyl)-phenyl]-1H-[1,2,3]triazol-4-yl}-1H-quinolin-2-one]
130	40	CN1CCN(C(=O)c2ccc(-n3cc(-c4cc5ccncc5[nH]c4=O)nn3)cc2)CC1 [A63, 3-{1-[4-(4-methyl-piperazine-1-carbonyl)-phenyl]-1H-[1,2,3]triazol-4-yl}-1H-[1,7]naphthyridin-2-one]
9.9	45	CN1CCC(CCOc2ccc(-n3cc(-c4cc5cc(F)ccc5[nH]c4=O)nn3)cc2)CC1 [A163, 6-fluoro-3-(1-{4-[2-(1-methyl-piperidin-4-yl)-ethoxy]-phenyl}-1H-[1,2,3]triazol-4-yl)-1H-quinolin-2-one]
28	7	CN1CCN(c2ccc(-n3cc(-c4cc5ccccc5[nH]c4=O)nn3)cc2)C(=O)C1 [A68, 3-{1-[4-(4-methyl-2-oxo-piperazin-1-yl)-phenyl]-1H-[1,2,3]triazol-4-yl}-1H-quinolin-2-one]
54	1.4	O=C(c1ccc(-n2cc(-c3cc4cc(F)ccc4[nH]c3=O)nn2)cc1)N1C[C@H](O)CO1 [A276, 6-fluoro-3-{1-[4-((S)-4-hydroxy-isoxazolidine-2-carbonyl)-phenyl]-1H-[1,2,3]triazol-4-yl}-1H-quinolin-2-one]
15	240	COC1CCN(C(=O)c2ccc(-n3cc(-c4cc5cc(F)c(F)cc5[nH]c4=O)nn3)cc2)CC1 [A191, 6,7-difluoro-3-{1-[4-(4-methoxy-piperidine-1-carbonyl)-phenyl]-1H-[1,2,3]triazol-4-yl}-1H-quinolin-2-one]
14	430	CN1CCN(C(=O)Cc2ccc(-n3cc(-c4cc5cc(F)c(F)cc5[nH]c4=O)nn3)cc2)CC1 [A169, 6,7-difluoro-3-(1-{4-[2-(4-methyl-piperazin-1-yl)-2-oxo-ethyl]-phenyl}-1H-[1,2,3]triazol-4-yl)-1H-quinolin-2-one]
470	110	O=C(O)c1ccc(-n2cc(-c3cc4cccnc4[nH]c3=O)nn2)cc1 [A77, 4-[4-(2-Oxo-1,2-dihydro-[1,8]naphthyridin-3-yl)-[1,2,3]triazol-1-yl]-benzoic acid]
11	2	COCCCN1CCN(C(=O)c2ccc(-n3cc(-c4cc5cc(F)ccc5[nH]c4=O)nn3)cc2)CC1 [A86, 6-fluoro-3-(1-{4-[4-(3-methoxy-propyl)-piperazine-1-carbonyl]-phenyl}-1H-[1,2,3]triazol-4-yl)-1H-quinolin-2-one]
2200	150	Cc1ccc2cc(-c3cn(-c4ccc(C(=O)N5CCOCC5)cc4)nn3)c(=O)[nH]c2n1 [A30, 7-methyl-3-{1-[4-(morpholine-4-carbonyl)-phenyl]-1H-[1,2,3]triazol-4-yl}-1H-[1,8]naphthyridin-2-one]
63	120	CN(C)[C@@H]1CCCN(C(=O)c2ccc(-n3cc(-c4cc5ccc(F)cc5[nH]c4=O)nn3)cc2)C1 [A333, 3-{1-[4-((R)-3-dimethylamino-piperidine-1-carbonyl)-phenyl]-1H-[1,2,3]triazol-4-yl}-7-fluoro-1H-quinolin-2-one]
